These results are taken from patent US10316025B2, “Substituted piperazine compounds and methods of use and use thereof” (SUNSHINE LAKE PHARMA CO., LTD., priority 2015, dated 2019).

Data set [1] can be described thus: Pharmacokinetic evaluation in rats after intravenous or gavage administration. Conditions: for AUC(0-inf) / AUC(0-t) / Cmax / Tmax / clearance / half-life / Vd: SD, rat, plasma; for Vd: read-out: Vss. It is filed as in vivo, SD rats. The protocol:
The pharmacokinetic evaluation of the compound disclosed herein in rats, dogs and monkeys was carried out in this invention, and animal information as described in Table 1.
The compounds disclosed herein were administered in form of a saline solution containing 5% DMSO, 5% Kolliphor HS 15, 2% (2% HCl) and 88% Saline, or a physiological saline solution containing 10% DMSO, 10% Kolliphor HS 15 and 80% physiological saline to an animal subject. The animals of the intravenous administration group were administered at a dose of 1 mg/kg, and 0.3 mL of vein blood samples were collected at the time points of 0, 0.083, 0.25, 0.5, 1.0, 2.0, 5.0, 7.0 and 24 h after drug administration, then each blood sample was processed to separate plasma by centrifugation at 3000 rpm or 4000 rpm for 10 minutes, and the plasma samples were collected and stored at −20° C. or −70° C. The animals of the gavage administration group were administered at a dose of 2.5 mg/kg, and 0.3 mL of vein blood samples were collected at the time points of 0, 0.083, 0.25, 0.5, 1.0, 2.0, 5.0, 7.0 and 24 h after drug administration, then each blood sample was processed to separate plasma by centrifugation at 3000 rpm or 4000 rpm for 10 minutes, and the plasma samples were collected and stored at −20° C. or −70° C.
The above plasma was analyzed by the LC/MS/MS system.
The LC/MS/MS system for the analysis comprises an Agilent 1200 Series Vacuum Degasser, binary syringe pumps, a well-plate autosampler, a column oven and an Agilent G6430A Triple Quadrupole Mass Spectrometer equiped with an electrospray ionization (ESI) source.
Analysis was performed on waters XBridge C18 (2.1×50 mm, […] column, and 5 μL of sample was injected). Conditions of the analysis comprise: a mobile phase consisting of mobile phase A (water, 2 mM ammonium formate and 0.1% formic acid) and mobile phase B (methanol, 2 mM ammonium formate and 0.1% formic acid). A flow rate of 0.4 mL/min.

The target in data set [2] is T1, human 5-HT transporters (SERT) (Homo sapiens, UniProt P31645).
T1 construct: expressed in transfected cells; host or cells: CHO cells (membrane homogenate)
T1 sequence (P31645 whole entry): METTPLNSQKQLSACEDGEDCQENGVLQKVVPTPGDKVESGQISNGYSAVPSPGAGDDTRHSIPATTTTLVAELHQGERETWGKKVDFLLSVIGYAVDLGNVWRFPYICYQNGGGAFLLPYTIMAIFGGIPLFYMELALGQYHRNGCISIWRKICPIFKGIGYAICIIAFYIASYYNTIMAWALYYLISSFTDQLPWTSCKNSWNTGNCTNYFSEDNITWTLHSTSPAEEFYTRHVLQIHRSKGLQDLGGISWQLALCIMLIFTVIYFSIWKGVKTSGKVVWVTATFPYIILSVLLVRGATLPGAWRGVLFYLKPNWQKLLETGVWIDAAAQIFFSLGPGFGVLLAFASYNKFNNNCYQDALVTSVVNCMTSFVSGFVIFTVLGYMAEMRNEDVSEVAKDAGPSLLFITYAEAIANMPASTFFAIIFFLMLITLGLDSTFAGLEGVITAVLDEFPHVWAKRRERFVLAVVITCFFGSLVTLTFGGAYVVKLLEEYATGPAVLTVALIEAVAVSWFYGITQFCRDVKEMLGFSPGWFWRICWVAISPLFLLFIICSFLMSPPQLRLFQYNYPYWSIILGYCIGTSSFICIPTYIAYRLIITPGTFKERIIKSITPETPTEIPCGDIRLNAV
Description: Affinity to CHO cells-transfected human-derived 5-HT transporter ([3H]imipramine binding). Conditions: 2 nM [3H]imipramine, CHO cell membrane homogenate, 22°C, 60 min. The protocol:
To a mixed system of cell membrane homogenate protein (12 μg), 2 nM of [^3H] imipramine and buffer solution (50 mM of Tris-HCl (pH 7.4), 120 mM of NaCl, 0.5 mM of KCl and 0.1% BSA) was added or not added the test compound at 22° C., and then the resulting mixture was incubated for 60 minutes.
To the mixed system mentioned above was added 10 μM of imipramine for measuring nonspecific binding values.
After incubation, the samples were filtered rapidly in vacuo with a 96-sample cell harvester (Unifilter, Packard) through glass-fiber filters (GF/B, Packard) pre-soaked with 0.3% PEI and rinsed several times with an ice-cold 50 mM of Tris-HCl and 150 mM of NaCl. The filters were dried and the retained radioactivity was measured by means of a scintillation counter (Topcount, Packard) using a scintillation cocktail (Microscint O, Packard). Each experimental result was expressed as a percentage inhibition of radioactive ligand specific binding relative to control groups.
The standard reference compound was imipramine, and ICso values were calculated by the competitive curve obtained from a series of concentrations of the experimental test. The experimental results of the affinity of the compounds disclosed herein to human 5-HT transporters (SERT) were listed in Table A.

For the next data set, the target named is T2, 5-HT1A receptors (Homo sapiens, UniProt P08908).
T2 construct: host or cells: human HEK-293 cell homogenates
T2 sequence (P08908 1-422): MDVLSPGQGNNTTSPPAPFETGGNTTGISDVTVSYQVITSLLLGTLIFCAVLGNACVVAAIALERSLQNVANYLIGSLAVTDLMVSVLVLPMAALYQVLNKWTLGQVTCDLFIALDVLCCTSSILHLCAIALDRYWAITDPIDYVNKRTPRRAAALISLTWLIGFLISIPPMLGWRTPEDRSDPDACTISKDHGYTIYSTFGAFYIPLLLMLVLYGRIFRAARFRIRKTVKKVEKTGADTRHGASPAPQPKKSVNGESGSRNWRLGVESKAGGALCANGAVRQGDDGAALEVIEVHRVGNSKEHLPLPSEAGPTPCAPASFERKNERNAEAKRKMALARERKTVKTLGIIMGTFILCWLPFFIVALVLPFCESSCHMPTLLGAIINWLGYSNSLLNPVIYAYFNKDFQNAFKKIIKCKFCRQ
Description: h5-HT1A binding affinity test ([3H]8-OH-DPAT, HEK-293 cell homogenates). Conditions: 0.3 nM [3H]8-OH-DPAT, 22°C, 60 min, Ki from IC50 by ChengPrusoff equation. As for the experimental part: Human HEK-293 cell homogenates (36 μg of protein) were incubated at 22° C. for 60 minutes with 0.3 nM of [^3H]8-OH-DPAT (Perkin-Elmer) in the absence or presence of the test compound in a buffer solution containing 50 mM of Tris-HCl (pH 7.4), 10 mM of MgSO4, 0.5 mM of EDTA and 2 μg/mL aprotinine.
The non-specific binding value was determined by incubating the same mixture in the presence of 10 μM of 8-OH-DPAT, which was used as the standard reference compound. Competitive curve was obtained by testing data of 8-OH-DPAT in each experiment at several concentrations.
The incubated samples were filtered fastly using a 96-sample cell harvester (Unifilter, Packard) through fiberglass filter membranes (GF/B, Packard) pre-soaked with 0.3% PEI in vacuo, and washed several times with an ice cold 50 mM of Tris-HCl. The filter membranes were dried and the retained radioactivity was measured in a scintillation counter (Topcount, Packard) using a scintillation cocktail (Microscint 0, Packard). The experimental results were expressed as inhibition percentage of radioactive ligand specific binding relative to control groups.
The experiments of combining [^3H]8-OH-DPAT (0.3 nM) with 5-HT1A receptors of human HEK-293 cells were accomplished by using Scintillation Proximity Assay on membrane. The test compounds were required to be tested at least three times in the case of a concentration of more than 6 log, and the data were analyzed by the method of nonlinear regression using Hill equation curve to obtain an IC50 value, and then the IC50 value was calculated by ChengPrusoff equation to obtain a Ki value.

What is called AUC(0-inf) is the area under the concentration-time curve extrapolated to infinity. High values mean more exposure, low ones less exposure. In general, AUC(0-t) refers to exposure summed from dosing to a finite time, without extrapolation to infinity. For orientation: Cmax means the highest concentration seen after dosing. For orientation: Tmax means the time from dosing to the highest level. The half-life is the time needed for the level to fall by half in the phase considered. A high value points to slow loss. As usually defined, the IC50 is the midpoint of a concentration-inhibition curve. One may read the Ki as the equilibrium dissociation constant of an inhibitor or competing ligand from its target. On to `N#Cc1ccc2[nH]cc(CCCCN3CCN(c4ncc(-c5ccc(F)cc5F)cn4)CC3)c2c1` [Example 13, 3-(4-(4-(5-(2,4-difluorophenyl)pyrimidin-2-yl)piperazin-1-yl)butyl)-1H-indole-5-carbonitrile], for which, in data set [1] (iv, 1 mg/kg), the AUC(0-inf) was found to be 724 ng·h/mL, the AUC(0-t) was 643 ng·h/mL, the concentration peaked (Cmax) at 330 ng/mL and the Tmax came to 4.98 min. In data set [1] (iv, 1 mg/kg), the clearance is 23.8 mL/min/kg, the half-life was 234 min and the Vd is 6 L/kg. Moreover, in data set [1] (po, 2.5 mg/kg), the AUC(0-inf) came to 1160 ng·h/mL, the AUC(0-t) was 1070 ng·h/mL, the Cmax was determined as 152 ng/mL and the Tmax stood at 60 min. In addition, in data set [1] (po, 2.5 mg/kg), the half-life is 248 min and the F is 66.4%. The molecule further displayed an IC50 in data set [2] of 1.2 nM. On 5-HT1A receptors, this molecule had a Ki of 1.3 nM.

As to `N#Cc1ccc2[nH]cc(CCCN3CCN(c4ncc(-c5ccc(F)cc5F)cn4)CC3)c2c1` [Example 14, 3-(3-(4-(5-(2,4-difluorophenyl)pyrimidin-2-yl)piperazin-1-yl)propyl)-1H-indole-5-carbonitrile], in data set [1] (iv, 1 mg/kg), the AUC(0-inf) was 1500 ng·h/mL, the AUC(0-t) is 1340 ng·h/mL, the Cmax came out at 193 ng/mL and the Tmax turned out to be 15 min. In data set [1] (iv, 1 mg/kg), the clearance stood at 11.6 mL/min/kg, the half-life was 452 min and the Vd was determined as 6.41 L/kg. Besides, in data set [1] (po, 2.5 mg/kg), the AUC(0-inf) came to 3130 ng·h/mL, the AUC(0-t) amounted to 2790 ng·h/mL, the peak level (Cmax) was 180 ng/mL and the Tmax stood at 300 min. In data set [1] (po, 2.5 mg/kg), this molecule gave a half-life of 437 min and an F of 83.28%. Also, the IC50 in data set [2] was 0.58 nM. For the same molecule, the Ki on 5-HT1A receptors was 0.92 nM.
